Reference: US11912794B2, “Modulation of structured polypeptide specificity” (BicycleRD Limited, priority 2011, dated 2024)
Where two headings read alike, the source gives them in different places. Numbered stars: 1 amine (or outer) side, 2 acyl side, 3 side chain; on linkers, the order of the positions; unused ones are H or OH. Bridge positions count the residues as written; N and C are the ends. Square brackets hold non-standard residues; d marks the D form. Peptide text beside a SMILES is read from it. Phe(4-guanidino) = N=C(N)Nc1ccc(C[C@H](N)C(=O)O)cc1; TBMB = c1c(C[*:1])cc(C[*:3])cc1C[*:2]; hArg = N=C(N)NCCCC[C@H](N)C(=O)O; βAla = NCCC(=O)O

Tests used:
[1] = Plasma stability method 3 (95% plasma, quantitative LC/MS, Biofocus); format: in vitro ADME, rat
Protocol: To obtain plasma stability quantitatively, peptide stock solutions (1 mM in DMSO) were shipped to Biofocus, UK, who performed the analysis. Peptides were diluted to 100 uM with water, and diluted 1:20 in plasma (5 uM final concentration, with the plasma at 95%), sampled as appropriate, precipitated as above, and quantified using a Waters Xevo TQ-MS.

[2] = Plasma stability profiling method 1 (35% plasma, MALDI-TOF, qualitative); format: in vitro ADME, rat; settings: 35% rat plasma, 37 deg C, method 1, comparative estimate
Protocol: Three methods were employed to assess the stability of bicycles (peptides conjugated to molecular scaffolds) in plasma.
A rapid plasma stability profiling assay was developed that employed mass spectrometric detection (MALDI-TOF, Voyager DE, Applied Biosystems) of the parent mass, until the time when the parent peptide mass was no longer observable. Specifically, 200 uM of peptide was incubated in the presence of 35% rat or human plasma (Sera labs, using citrate as anticoagulant) at 37 deg C., which was supplemented with 1×PBS (derived from a 10×PBS Stock, Sigma). At various time points (i.e. t=0, 3, 24 hrs, henceafter daily up to 10 days), 2 uL of sample was added to 18 uL of 30 mM ammonium bicarbonate in a 1:1 mixture of acetonitrile:H2O. Samples were frozen at −80 deg C. until the time of analysis. For mass spectrometric analysis that determines the approximate detection window of the peptide, the acetonitrile:H2O-diluted sample of a given time point was spotted directly (0.7 uL) onto the MALDI plate. Matrix (alpha-cyanocinnamic acid, Sigma, prepared as a saturated solution in 1:1 acetonitrile:water containing 0.1% trifluoroacetic acid) was layered over the sample (1 uL). At a similar laser intensity setting on the MALDI TOF, the time could then be determined until parent peptide was no longer detectable. It should be noted that this is a qualitative assay serves to detect relative changes in plasma stability.

[3] = biological target: T1, human plasma Kallikrein (Homo sapiens, UniProt P03952); test: Functional enzyme inhibition assay, fluorogenic substrate Z-PheArg-AMC; format: biochemical
T1 construct: purchased Stratech, UK
T1 sequence (P03952 20-638): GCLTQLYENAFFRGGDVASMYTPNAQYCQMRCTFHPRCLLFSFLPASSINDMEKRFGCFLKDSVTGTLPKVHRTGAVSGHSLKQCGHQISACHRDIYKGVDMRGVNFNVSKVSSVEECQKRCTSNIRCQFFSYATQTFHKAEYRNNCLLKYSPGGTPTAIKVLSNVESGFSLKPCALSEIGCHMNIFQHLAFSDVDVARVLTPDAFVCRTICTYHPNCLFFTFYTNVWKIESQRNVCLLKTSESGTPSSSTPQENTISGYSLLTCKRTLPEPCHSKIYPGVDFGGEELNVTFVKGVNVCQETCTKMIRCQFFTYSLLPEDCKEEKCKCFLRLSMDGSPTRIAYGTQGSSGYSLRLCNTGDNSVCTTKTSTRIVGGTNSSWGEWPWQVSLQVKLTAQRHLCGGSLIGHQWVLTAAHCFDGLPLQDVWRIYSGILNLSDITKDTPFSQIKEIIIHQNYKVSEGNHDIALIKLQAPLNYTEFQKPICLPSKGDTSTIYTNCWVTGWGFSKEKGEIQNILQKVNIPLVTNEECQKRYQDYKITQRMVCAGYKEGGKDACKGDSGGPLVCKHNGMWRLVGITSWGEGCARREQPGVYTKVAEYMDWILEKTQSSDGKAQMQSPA
Protocol: Peptides were dissolved as the TFA-salts in their powder form, and stock solutions were usually prepared in water. All solutions were centrifuged and filtered ([…] syringe filters) prior absorption measurement at 280 nm. […] For peptides containing non-natural amino acids with suspected chromophoric properties (i.e. NorHar, 4PhenylPro, 3PaI, 4PaI, Tic, 4GuanPhe, 4,4-BPAI, 3,3-DPA, 1NAI, 2NAI, 4BenzylPro, Ind) concentrations were determined by weighing the powder and dissolving the peptide in a defined quantity of water.

[4] = Ki (nM) (human kallikrein), Ac-06-34-18(TMB)-NH2 series

Compound | t1/2 (hrs) in rat plasma ([1]; rat, plasma, 5 uM) | Observable in rat plasma, for days [2] | Ki [3, 4] | rat plasma stability enhanced by a factor ([1]; vs parent Phe2Tyr4 peptide) | t1/2 (hrs) in rat plasma ([1]; method 3, quantitative, listed as Ac-06-34-18(TMB)-NH2) | Observable in rat plasma, for days ([2]; listed as Ac-06-34-18(TMB)-NH2) | Ki ([3]; text b279, read-out: affinity to Kallikrein)
CC(=O)N[C@H]1CSCc2cc3cc(c2)CSC[C@H](NC(=O)[C@H](CCCNC(=N)N)NC(=O)[C@H](Cc2ccc(O)cc2)NC(=O)[C@@H]2CCCN2C(=O)[C@H](Cc2ccccc2)NC(=O)[C@H](CO)NC1=O)C(=O)N[C@@H](CC(C)C)C(=O)N[C@@H](Cc1c[nH]cn1)C(=O)N[C@@H](CCC(N)=O)C(=O)N[C@@H](CC(=O)O)C(=O)N[C@@H](CC(C)C)C(=O)N[C@H](C(N)=O)CSC3 [Ac-(06-34-18) FPYR] (Ac-CSFPYRCLHQDLC-NH2; linker 1-7-13 via TBMB) | 0.9 h | 2 days | 0.46 nM |  |  |  | 
CC(=O)N[C@H]1CSCc2cc3cc(c2)CSC[C@H](NC(=O)[C@H](Cc2ccc(NC(=N)N)cc2)NC(=O)[C@H](Cc2ccc(O)cc2)NC(=O)[C@@H]2CCCN2C(=O)[C@H](Cc2ccccc2)NC(=O)[C@H](CO)NC1=O)C(=O)N[C@@H](CC(C)C)C(=O)N[C@@H](Cc1c[nH]cn1)C(=O)N[C@@H](CCC(N)=O)C(=O)N[C@@H](CC(=O)O)C(=O)N[C@@H](CC(C)C)C(=O)N[C@H](C(N)=O)CSC3 [Ac-(06-34-18) Phe2 Tyr4 4GuanPhe5] (Ac-CSFPY[Phe(4-guanidino)]CLHQDLC-NH2; linker 1-7-13 via TBMB) | 5.0 h | >10 days | 0.4 nM |  |  |  | 
CC(=O)N[C@H]1CSCc2cc3cc(c2)CSC[C@H](NC(=O)[C@H](CCCCNC(=N)N)NC(=O)[C@H](Cc2ccc(O)cc2)NC(=O)[C@@H]2CCCN2C(=O)[C@H](Cc2ccccc2)NC(=O)[C@H](CO)NC1=O)C(=O)N[C@@H](CC(C)C)C(=O)N[C@@H](Cc1c[nH]cn1)C(=O)N[C@@H](CCC(N)=O)C(=O)N[C@@H](CC(=O)O)C(=O)N[C@@H](CC(C)C)C(=O)N[C@H](C(N)=O)CSC3 [Ac-(06-34-18) Phe2 Tyr4 HomoArg5] (Ac-CSFPY[hArg]CLHQDLC-NH2; linker 1-7-13 via TBMB) | 12.2 h | >10 days |  | 13 |  |  | 
CC(=O)N[C@H]1CSCc2cc3cc(c2)CSC[C@H](NC(=O)[C@H](CCCNC(=N)N)NC(=O)[C@H](Cc2ccc(O)cc2)NC(=O)[C@@H]2CCCN2C(=O)[C@H](Cc2c[nH]c4ccccc24)NC(=O)[C@H](CO)NC1=O)C(=O)N[C@@H](CC(C)C)C(=O)N[C@@H](Cc1c[nH]cn1)C(=O)N[C@@H](CCC(N)=O)C(=O)N[C@@H](CC(=O)O)C(=O)N[C@@H](CC(C)C)C(=O)N[C@H](C(N)=O)CSC3 [Ac-(06-34-18) WPYR] (Ac-CSWPYRCLHQDLC-NH2; linker 1-7-13 via TBMB) |  | 2 days | 0.41 nM |  |  |  | 
CC(=O)N[C@H]1CSCc2cc3cc(c2)CSC[C@H](NC(=O)[C@H](CCCNC(=N)N)NC(=O)[C@H](C)NC(=O)[C@@H]2CCCN2C(=O)[C@H](Cc2c[nH]c4ccccc24)NC(=O)[C@H](CO)NC1=O)C(=O)N[C@@H](CC(C)C)C(=O)N[C@@H](Cc1c[nH]cn1)C(=O)N[C@@H](CCC(N)=O)C(=O)N[C@@H](CC(=O)O)C(=O)N[C@@H](CC(C)C)C(=O)N[C@H](C(N)=O)CSC3 [Ac-(06-34-18) wildtype] |  |  |  |  | about 2 hrs | about 2 days | 
CC(=O)N[C@H]1CSCc2cc3cc(c2)CSC[C@H](NC(=O)[C@H](CCCNC(=N)N)NC(=O)CCNC(=O)[C@@H]2CCCN2C(=O)[C@H](Cc2c[nH]c4ccccc24)NC(=O)[C@H](CO)NC1=O)C(=O)N[C@@H](CC(C)C)C(=O)N[C@@H](Cc1c[nH]cn1)C(=O)N[C@@H](CCC(N)=O)C(=O)N[C@@H](CC(=O)O)C(=O)N[C@@H](CC(C)C)C(=O)N[C@H](C(N)=O)CSC3 [Ac-(06-34-18) β-Ala4] (Ac-CSWP[βAla]RCLHQDLC-NH2; linker 1-7-13 via TBMB) |  | 10 days |  |  |  |  | ~20000 nM
